Test results published in patent publication US6479513B2, “Anticancer compound and enantiomer separation method useful for synthesizing said compound” (Pfizer Inc., priority 2000, dated 2002).

Target: T1, human farnesyl transferase (FTase) (Homo sapiens, UniProt P49354+P49356)
T1 construct: comprising the cytosolic fraction of homogenized brain tissue; from tissue; host or cells: brain tissue, cytosolic fraction (crude FTase)
Test: in vitro inhibition of human FTase, farnesyl transferase (3H) scintillation proximity assay
Format: biochemical
Excerpt: The activity of the compounds of formula 1 and formula 2 as Ras farnesylation inhibitors may be determined by their ability, relative to a control, to inhibit Ras farnesyl transferase in vitro. An example of one such procedure is described below.
A crude preparation of human farnesyl transferase (FTase) comprising the cytosolic fraction of homogenized brain tissue is used for screening compounds in a 96-well assay format. […]
The assay used to measure in vitro inhibition of human FTase is a modification of the method described by Amersham LifeScience for using their Farnesyl transferase (3H) Scintillation Proximity Assay (SPA) kit (TRKQ 7010). FTase enzyme activity is determined in a volume of 100 μl containing 50 mM N-(2-hydroxy ethyl) piperazine-N-(2-ethane sulfonic acid) (HEPES), pH 7.5, 30 mM MgCl2, 20 mM KCl, 25 mM Na2HPO4, 5 mM dithiothreitol (DTT), 0.01% Triton X-100, 5% dimethyl sulfoxide (DMSO), […] of crude FTase, […] [3H]-famesyl pyrophosphate ([3H]-FPP; 36000 dpm/pmole, Amersham LifeScience), and 0.2 μM of biotinylated Ras peptide KTKCVIS (Bt-KTKCVIS) that is N-terminally biotinylated at its alpha amino group and was synthesized and purified by HPLC in house. […] The amount of radioactivity bound to the SPA beads is determined using a MicroBeta 1450 plate counter. […]

Cn1cncc1C(N)(c1ccc(Cl)nc1)c1ccc2c(c1)c(-c1cccc(Cl)c1)cc(=O)n2CC1CC1 (single isomer, unassigned; (+)) [Example 8, (+)-6-[Amino-(6-chloro-pyridin-3-yl)-(3-methyl-3H -imidazol-4-yl)-methyl]-4-(3-chloro-phenyl)-1-cyclopropylmethyl-1H-quinolin-2-one]
activity in inhibiting the enzyme farnesyl protein transferase, relative to the levorotatory isomer (compared with the levorotatory isomer, figures not given): greater activity | IC50 (crude FTase (cytosolic fraction of brain tissue), [3H]-FPP, Bt-KTKCVIS, 45 minute incubation at 37° C., read-out: IC50 value for inhibiting farnesylation of the biotinylated KTKCVIS-peptide): < 0.5 µM
